Data reported in the NIST ThermoML archive (doi:10.1016/j.fluid.2004.11.019).

Experiment: xn = mol fraction of the nth substance listed
Conditions: 323.15 K, Liquid

CCO [ethanol] + O
mass density [kg/m3]
Conditions	100 kPa	10000 kPa	20000 kPa
x1 = 0.003	–	990.8	994.9
x1 = 0.0042	–	989.6	993.9
x1 = 0.0082	–	988.2	992.4
x1 = 0.0119	–	986.9	991.1
x1 = 0.0158	–	984.7	988.9
x1 = 0.0184	–	983.3	987.5
x1 = 0.0219	–	982.2	986.3
x1 = 0.0255	–	980.6	984.7
x1 = 0.0279	–	979	983.1
x1 = 0.0315	–	978.1	982.2
x1 = 0.0366	–	975.6	979.6
x1 = 0.0392	–	974.3	978.4
x1 = 0.0439	–	972.8	976.8
x1 = 0.0483	–	970.7	974.8
x1 = 0.0516	–	970	974
x1 = 0.0559	–	968.6	972.7
x1 = 0.06	–	967.1	971.2
x1 = 0.0652	–	965	969.1
x1 = 0.0679	–	964.3	968.3
x1 = 0.0722	–	962.5	966.6
x1 = 0.0801	–	959.3	963.4
x1 = 0.084	–	958.9	963
x1 = 0.0879	–	957.1	961.2
x1 = 0.0926	–	955.5	959.6
x1 = 0.0958	–	954.4	958.5
x1 = 0.1006	–	952.8	956.9
x1 = 0.1111	–	949	953.2
x1 = 0.1225	–	945.1	–
x1 = 0.1296	–	942.6	–
x1 = 0.1402	–	939	–
x1 = 0.151	–	935.2	–
x1 = 0.1601	–	932.2	–
x1 = 0.1703	–	928.8	–
x1 = 0.18	920.6	925.5	–
x1 = 0.1903	917.3	922.1	–
x1 = 0.1996	914.1	919	–
x1 = 0.2269	905.2	910.3	–
x1 = 0.2502	898.1	903.4	–
x1 = 0.2745	890.8	896.3	–
x1 = 0.3009	883.5	889.2	–
x1 = 0.35	870.2	876.2	–
x1 = 0.4034	857.3	863.7	–
x1 = 0.4501	846.7	853.3	–
x1 = 0.498	837	843.9	–
x1 = 0.5501	826.9	834.3	–
x1 = 0.5998	818.4	826.3	–
x1 = 0.6489	810.1	817.9	–
x1 = 0.6967	802.8	810.9	–
x1 = 0.7475	795.4	803.8	–
x1 = 0.7996	788.4	796.9	–
x1 = 0.8484	781.9	790.8	–
x1 = 0.8993	775.6	784.7	–
x1 = 0.9503	769.5	779	–
x1 = 1	763.7	773.4	–
